Test results published in patent US10576125B2, “Methods for enhancing synaptogenesis and neuritogenesis” (HOUGH EAR INSTITUTE, priority 2016, dated 2020).

Columns and labels:
[1] = tested on: PC12 cell line; assay: NGF-induced neuritogenesis in PC12 cells; format: cell-based
Experimental: This NGF-induced neuritogenic response was apparently saturable at concentrations at and above 10 ng/mL in this context.
FIG. 4 depicts the percentage of PC12 cells with significant neurite outgrowth. The pattern observed here is similar to that observed for treatment-induced increases in average neurite length. Taken together, these evaluations support the interpretation that HPN-07 acts in concert with NGF to promote both de novo neurite outgrowth and changes in the stability or assembly kinetics of neurites in such a manner as to support increases in mean neurite length, both of which are desirable features for re-innervation of IHCs.

[2] = tested on: noise-damaged chinchilla; assay: Live animal study in noise-damaged chinchilla; format: in vivo
[3] = tested on: IHC ribbon synapses in murine SGN-IHC co-culture; assay: Kainic acid excitotoxic trauma in SGN-IHC co-culture; format: cell-based; settings: for KA-induced shift of pre-synaptic densities from typical to apical distributions: quantitative evaluation
Source text: The previous findings were applied to a murine SGN-IHC co-culture model of excitotoxic trauma. In IHCs of undamaged co-cultures of auditory sensory epithelia (organs of Corti, OC) and associated spiral ganglion neurons (NC), most of the pre-synaptic C-terminal binding protein 2 (CtBP2)-immunoreactive puncta (small red dots) are located in a “typical,” cytoarchitectural position, located along the basal surface of the cell, below or surrounding the IHC nucleus (large red spheres). A marked shift from this typical CtBP2 basal immunoreactivity pattern to a more apical distribution pattern occurred after exposure to the excitotoxic glutamate analog, kainic acid (KA). […] The ability of HPN-07 to restore the structural integrity of ribbon synapses among IHCs following an excitotoxic trauma in this co-culture model is consistent with HPN-07 acting to promote synaptogenesis (i.e., re-innervation) in this context.
FIG. 6 summarizes a quantitative evaluation from a targeted comparison of the number and spatial distribution of ribbons among IHCs from untreated, BDNF-treated, or HPN-07-treated explants following excitotoxic exposure to KA. […] Each data point represents a composite of approximately ten independent measurements.

[4] = tested on: murine spiral ganglion (SG) tissue explants; assay: Neuritogenesis in murine spiral ganglion explants; format: cell-based, mouse; settings: for neurite outgrowth induced by exogenous neurotrophic factor: at 10 μM (so in the source) relative to untreated controls, FIG. 24B, FIG. 26B
[5] = tested on: PC12 cell line; settings: cited from earlier work

With “2,4-disulfonyl α-phenyl tertiary butyl nitrone [HPN-07]” the mean neurite lengths ([1]; 1 μM HPN-07 + 10 ng/mL NGF, 6 days, FIG. 3) was “markedly surpassed the maximum lengths achieved in the saturable NGF dose-escalation series”, the “NGF-mediated neuritogenesis (mean neurite length)” value ([1]; 1 μM HPN-07 + 1 and 5 ng/mL NGF, 6 days, FIG. 3) was “enhances” and the “percentage of PC12 cells bearing neurites” value ([1]; HPN-07 + escalating doses of NGF, FIG. 4) was “significantly enhanced NGF-induced neuritogenesis”. The “neurite length, HPN-07 alone” value ([1]; low concentrations, no NGF) was “did not increase neurite length”, the functional recovery ([2]; long after the duration of treatment) was “progressive degree of functional recovery” and the “inner hair cell neurite populations” value ([2]; relative to untreated controls) was “significantly greater inner hair cell neurite populations”. The “neurite densities along the base of IHCs” value ([3]; SGN-HC co-cultures following KA) was “increased neurite densities along the base of IHCs”, the “number of total ribbons among IHCs” value ([3]; after KA, compared with BDNF, FIG. 6) was “greater number of total ribbons” and the “KA-induced apical shift of CtBP2 puncta and loss of PSD-95 co-labeling (IHC ribbon synapse integrity)” value ([3]; post-excitotoxic treatment, 10 μM, FIG. 5) was “reversed this pathologic shift”. The “KA-induced shift of pre-synaptic densities from typical to apical distributions” value ([3]; FIG. 6) was “reversed this pathologic change”, the “potentiation of BDNF-induced neuritogenesis” value ([4]; BDNF 10 ng/mL + HPN-07 0.1 μM, 48 hours, serum-free medium, FIG. 2) was “potentiated neuritogenesis” and the “neurite outgrowth (number and length of neurites) from SG explants” value ([4]; HPN-07 alone vs untreated controls (NC), FIG. 1) was “induced marked neurite outgrowth”. For the same molecule, the “concentration sufficient to induce a neuritogenic response” value ([4]; organotypic cultures of mouse spiral ganglion neurons) was 100 µM, the “number and extent of nerve fibers in addition to BDNF” value ([4]; with BDNF 10 ng/ml, FIG. 24) was “greatly increased the number and extent of nerve fibers” and the NT-3 induced neuritogenesis ([4]; with NT-3 10 ng/ml, FIG. 26) was “enhanced”.

For `CC(C)(C)[N+]([O-])=Cc1ccccc1` [PBN, alpha-phenyl N-tertiary-butyl nitrone], the “concentration required for inducing neuritogenesis in PC12 cells” value [5] is listed as 10 mM.

In the case of NGF: Nerve growth factor, the “concentrations at which the NGF-induced neuritogenic response is saturable” value ([1]; NGF alone) is reported as ≥ 10 ng/mL and the neurite elongation ([1]; NGF alone) is reported as “induced neurite elongation in a dose-dependent manner”.

B1: NT-3: inherent neurotrophic factor in the inner ear, essential for development and survival of cochlear spiral ganglions (protein, UniProt P20783 139-257, looked up)
Neurotrophin-3: YAEHKSHRGEYSVCDSESLWVTDKSSAIDIRGHQVTVLGEIKTGNSPVKQYFYETRCKEARPVKNGCRGIDDKHWNSQCKTSQTYVRALTSENNKLVGWRWIRIDTSCVCALSRKIGRT
For B1, the “neurite outgrowth induced by exogenous neurotrophic factor” value [4] was “induced significant neurite outgrowth”.

B2: BDNF: Brain-derived neurotrophic factor, the canonical cochlear neuritogenic growth factor (protein, UniProt P23560 19-247, looked up)
Neurotrophic factor BDNF …: APMKEANIRGQGGLAYPGVRTHGTLESVNGPKAGSRGLTSLADTFEHVIEELLDEDQKVRPNEENNKDADLYTSRVMLSSQVPLEPPLLFLLEEYKNYLDAANMSMRVRRHSDPARRGELSVCDSISEWVTAADKKTAVDMSGGTVTVLEKVPVSKGQLKQYFYETKCNPMGYTKEGCRGIDKRHWNSQCRTTQSYVRALTMDSKKRIGWRFIRIDTSCVCTLTIKRGR
For B2, the “KA-induced shift of pre-synaptic densities from typical to apical distributions” value ([3]; FIG. 6) was “reversed this pathologic change” and the “neurite outgrowth induced by exogenous neurotrophic factor” value [4] was “induced significant neurite outgrowth”.
